Assay results: patent US11471506B2, “VIP antagonists and uses in treating cancer” (Emory University, priority 2018, dated 2022)
Entries after “also recorded” stand apart in the source; their conditions may differ. Ends that are not written are not given here.

Legend:
T cells = experiment: in vitro T cell proliferation in response to stimulation with anti-CD3 antibodies, with or without exogenous VIP; assay type: cell-based; details: for reversal / block of the suppressive effect of exogenous VIP on T cell proliferation: exogenous VIP peptide added
Protocol: Whether VIPhyb treatment would enhance T cell activation and cytotoxicity in response to melanoma, which can be highly immunogenic, was tested.
The anticancer activity of treatment with VIPhyb appears to be T cell mediated.

B16F10 cells = experiment: B16F10 melanoma model in B6 Albino mice, VIPhyb and/or anti-PD-1 antibody; assay type: in vivo, mouse; details: VIPhyb 10 μg s.c. daily for 10 days, PD-1 antibody 200 μg i.p. every 3 days, three doses, versus untreated
Protocol: Tumor volumes were calculated as […].
B16F10 cells were injected into B6 Albino mice. VIPhyb (10 μg) was administered subcutaneously every day for 10 days. Three doses of 200 μg of an PD-1 antibody was intraperitoneally administered every 3 days. A combination both VIPhyb and the PD-1 antibody were also administered.

melanoma = experiment: direct effect of VIPhyb on melanoma cells; assay type: cell-based; details: melanoma expressing VPAC2
[1] = system: luciferase expressing splenocytes from B6 mice; experiment: splenocyte co-culture with irradiated B16F1 and B16F10 cells, proliferation by BLI; assay type: cell-based, mouse; details: co-culture with irradiated B16 cells, anti-CD3 pre-coated plates, low-dose IL-2, 3 days
Protocol: Splenocytes isolated from 3 naïve luciferase+ B6 mouse were cultured with irradiated B16 cells and with or without VIPhyb in triplicate, and proliferation measured with BLI.
Whether combination of a VIPhyb with a PD-1 inhibitor could enhance an adaptive immune response to the more aggressive B16F10 model in vitro was investigated. Therefore, irradiated B16F1 and B16F10 cells were co-cultured with luciferase expressing splenocytes from B6 mice. Cells were placed in 96-well plates pre-coated with anti-CD3 antibody and low-dose recombinant murine IL-2 for 3 days and assessed proliferation by BLI.

B16F1 cells = experiment: B16F1 melanoma syngeneic model in B6 Albino mice, VIPhyb alone; assay type: in vivo, mouse
Protocol: To investigate VIPhyb as an immunotherapy for melanoma, and to determine the best route of administration, Luciferase-expression B16F1 cells were injected into B6 Albino syngeneic recipients and given 10 μg of VIPhyb peritumorally or subcutaneously on the contralateral flank beginning 1 day before tumor inoculation and continuing daily until the experimental endpoint.
Whether VIPhyb has an effect on adaptive immunity was testes. Mice with tumors that exceeded 500 mm^3 in volume were euthanized and their splenocytes phenotyped using flow cytometry. Blood was also collected for a complete blood count (CBC) to determine amount of peripheral white blood cells (WBCs). Of particular interest was the expansion of CD8+ T cells to corroborate the in vitro data, and expression of the inhibitory molecule PD-1.

[2] = system: KPC luc pancreatic cancer cells; experiment: MTT assay of viable KPC luc cells after VIPhyb; assay type: cell-based, murine; details: 0, 0.5, 1, 3 and 5 uM VIPhyb, 24 hours
Protocol: KPC luc pancreatic cancer cells were cultured in a 96 well plate for 24 hours with different concentrations of VIPhyb (0, 0.5, 1, 3 and 5 uM). Number of viable cells after 24 hours were quantified via MTT assay.

[3] = in vitro stability of the peptide on the nanoparticle; assay type: physicochemical; details: nanoparticle-conjugated peptide

Substance | in vitro T cell proliferation in response to stimulation with anti-CD3 antibodies (T cells) | reversal / block of the suppressive effect of exogenous VIP on T cell proliferation (T cells) | tumor volume / tumor growth (B16F10 cells) | direct effect on melanoma growth, invasiveness, and modulation of inhibitory surface molecules (melanoma) | splenocyte / T cell proliferation [1] | survival (B16F1 cells; B16F1, 10 μg VIPhyb daily) | tumor volume / tumor growth (B16F1 cells; B16F1, 10 μg VIPhyb daily, digital calipers twice weekly, versus untreated) | overall tumor burden by bioluminescent imaging (B16F1 cells; B16F1, once weekly BLI) | peripheral WBCs (B16F1 cells; peripheral blood, complete blood count) | tumor burden between the two routes of administration (B16F1 cells; peritumorally versus subcutaneously on the contralateral flank) | B cells (B16F1 cells; spleen upon euthanasia) | NK cells (B16F1 cells; spleen upon euthanasia) | dendritic cell subtypes (B16F1 cells; spleen upon euthanasia) | CD4+ T cells (B16F1 cells; spleen upon euthanasia, flow cytometry) | CD8+ T cells (B16F1 cells; spleen upon euthanasia, flow cytometry, versus PBS/saline-treated controls) | frequency of IFNγ, TNF, Granzyme B, and IL-2-producing cells in the CD4+ and CD8+ compartments (B16F1 cells; spleen, intracellular cytokine staining, versus PBS treated controls) | frequency of CD4+ and CD8+ T cells expressing PD-1, CTLA-4, and Lag-3 (B16F1 cells; spleen, versus PBS treated controls) | number of viable cells (direct killing) [2] | potency of the nanoparticle formulation (T cells; nanoparticle formulation versus free peptide) | stabilization of the peptide in vitro [3]
KPRRPYTDNYTRLRKQMAVKKYLNSILN [VIPhyb, hybrid peptide of neurotensin (6-11) and VIP (7-28); antagonist of VIP signalling] | dose-dependent enhancement | reversal of the suppressive effect of exogenous VIP peptide; also recorded: reversed exogenous VIP mediated splenic T cell suppression | lower average tumor volume | absence of a direct effect | not enough to promote expansion of splenocytes; also recorded: lack of splenocyte proliferation | no significant difference | no significant change; also recorded: did not have a significant effect; also recorded: does not affect tumor size | no tumor reduction | nonsignificant modest increase | no difference in tumor burden | nonsignificant increase | nonsignificant increase | nonsignificant increase | nonsignificant modest increase | significantly more; also recorded: Increased CD8+ T cell Proliferation; also recorded: more effector CD8+ T cells; also recorded: bolsters CD8+ proliferation | no significant difference | no significant difference | does not directly kill |  | 
VIPhyb-NP: VIPhyb with C-terminal GGGGSC linker (SEQ ID NO: 3) conjugated to a 30 nm Pluronic-stabilized polypropylene sulfide nanoparticle (KPRRPYTDNYTRLRKQMAVKKYLNSILNGGGGSC; also: conjugated to 30 nm Pluronic-stabilized polypropylene sulfide nanoparticle) | conserved | able to block the effects of exogenous VIP at higher concentrations |  |  |  |  |  |  |  |  |  |  |  |  |  |  |  |  | increased potency | stabilize the peptide in vitro
